Literature values as cited in patent US20160303264A1, “LIPOSOMES USEFUL FOR NON-INVASIVE IMAGING AND DRUG DELIVERY” (MERRIMACK PHARMACEUTICALS, INC., priority 2013, published 2016).

Details: human studies

## CN=C([S-])N/N=C(C)/C(C)=N/NC([S-])=NC.[64Cu+2] [^64Cu-ATSM]
  adverse events or clinically detectable pharmacologic effects: No adverse events or clinically detectable pharmacologic effects
  changes in vital signs or laboratory test results after injection: no clinically significant changes
